Assay results published in patent US4925861A, “Carboxystyrene derivatives and drugs containing them as effective ingredients” (Mitsubishi Kasei Corporation, priority 1987, dated 1990).

Tested on: Phospholipase A2 from Naja mocambique
Assay: in vitro phospholipase inhibiting activity (DPybPC fluorescence)
Format: biochemical
Details: compound 10^-5 M, substrate DPybPC 2 μM, pH 8.0, 25° C.

Structure (SMILES) | Phospholipase A2 Inhibition (%)
O=C(Nc1ccccc1C(=O)O)c1cccc(C=Cc2nc3ccccc3s2)c1 [Compound 13] | 73%
CCC(CC)(CNC(=O)c1cccc(C=Cc2nc3ccccc3s2)c1)C(=O)O [Compound 20] | 47%
